Results: PubChem BioAssay (NCI)
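Cells were grown in 96-well plates and exposed to each compound for 48 hours at five concentrations; endpoints were interpolated linearly between bracketing concentrations, or set to the highest concentration if not reached. TGI marks complete inhibition of growth.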

Experiments:
Experiment in all cases: NCI tumour cell line growth inhibition, 48 h
[1] = tested on: TK-10 renal
[2] = tested on: NCI-H522 lung
[3] = tested on: OVCAR-3 ovarian
[4] = tested on: MOLT-4 leukemia
[5] = tested on: M14 melanoma
[6] = tested on: NCI-H23 lung
[7] = tested on: RXF 393 renal
[8] = tested on: HOP-62 NSCLC
[9] = tested on: IGROV1 ovarian
[10] = tested on: SF-268 CNS
[11] = tested on: SK-OV-3 ovarian
[12] = tested on: NCI-H226 lung
[13] = tested on: EKVX NSCLC
[14] = tested on: OVCAR-8 ovarian
[15] = tested on: UACC-257 melanoma
[16] = tested on: MDA-N
[17] = tested on: MCF7 breast
[18] = tested on: BT-549 breast
[19] = tested on: A498 renal
[20] = tested on: OVCAR-5 ovarian
[21] = tested on: A549 NSCLC
[22] = tested on: U251 CNS
[23] = tested on: T-47D breast
[24] = tested on: SF-295 CNS
[25] = tested on: MDA-MB-435
[26] = tested on: COLO 205 colon
[27] = tested on: SK-MEL-2 melanoma
[28] = tested on: OVCAR-4 ovarian
[29] = tested on: DU-145 prostate
[30] = tested on: SN12C renal
[31] = tested on: HS 578T breast
[32] = tested on: K-562 leukemia
[33] = tested on: HT29 colon
[34] = tested on: HCT-116 colon
[35] = tested on: 786-0 renal
[36] = tested on: SF-539 CNS
[37] = tested on: CCRF-CEM leukemia
[38] = tested on: PC-3 prostate
[39] = tested on: HCC-2998 colon
[40] = tested on: NCI/ADR-RES ovarian
[41] = tested on: HCT-15 colon
[42] = tested on: SK-MEL-5 melanoma
[43] = tested on: MALME-3M melanoma
[44] = tested on: CAKI-1 renal
[45] = tested on: MDA-MB-231 breast
[46] = tested on: UACC-62 melanoma
[47] = tested on: SW-620 colon
[48] = tested on: NCI-H460 lung
[49] = tested on: RPMI-8226 leukemia
[50] = tested on: LOX IMVI melanoma
[51] = tested on: UO-31 renal
[52] = tested on: ACHN renal
[53] = tested on: SNB-19 CNS
[54] = tested on: SNB-75 CNS
[55] = tested on: SK-MEL-28 melanoma
[56] = tested on: HOP-92 NSCLC

SMILES: CC1(C)Oc2ccc3c(=O)c(-c4ccccc4)c(-c4ccccc4)oc3c2C1C(=O)O (stereo unspecified)
- TGI [1]: > 100 µM
- TGI [2]: > 100 µM
- TGI [3]: > 100 µM
- TGI [4]: > 100 µM
- TGI [5]: > 100 µM
- TGI [6]: > 100 µM
- TGI [7]: > 100 µM
- TGI [8]: > 100 µM
- TGI [9]: > 100 µM
- TGI [10]: > 100 µM
- TGI [11]: > 100 µM
- TGI [12]: > 100 µM
- TGI [13]: > 100 µM
- TGI [14]: > 100 µM
- TGI [15]: > 100 µM
- TGI [16]: > 100 µM
- TGI [17]: > 100 µM
- TGI [18]: > 100 µM
- TGI [19]: > 100 µM
- TGI [20]: > 100 µM
- TGI [21]: > 100 µM
- TGI [22]: > 100 µM
- TGI [23]: > 100 µM
- TGI [24]: > 100 µM
- TGI [25]: > 100 µM
- TGI [26]: > 100 µM
- TGI [27]: > 100 µM
- TGI [28]: > 100 µM
- TGI [29]: > 100 µM
- TGI [30]: > 100 µM
- TGI [31]: > 100 µM
- TGI [32]: > 100 µM
- TGI [33]: > 100 µM
- TGI [34]: > 100 µM
- TGI [35]: > 100 µM
- TGI [36]: > 100 µM
- TGI [37]: > 100 µM
- TGI [38]: > 100 µM
- TGI [39]: > 100 µM
- TGI [40]: > 100 µM
- TGI [41]: > 100 µM
- TGI [42]: > 100 µM
- TGI [43]: > 100 µM
- TGI [44]: > 100 µM
- TGI [45]: > 100 µM
- TGI [46]: > 100 µM

SMILES: NC1OC(COC(=O)c2ccccc2)C(O)C(OC(=O)c2ccccc2)C1OC(=O)c1ccccc1 (stereo unspecified)
- TGI [1]: > 100 µM
- TGI [2]: 58.5 µM
- TGI [3]: 75.5 µM
- TGI [4]: 54 µM
- TGI [5]: 58.1 µM
- TGI [6]: 61.9 µM
- TGI [7]: 31.3 µM
- TGI [8]: 50.2 µM
- TGI [47]: 53.6 µM
- TGI [48]: 27.9 µM
- TGI [9]: 35.9 µM
- TGI [10]: 67.4 µM
- TGI [11]: > 100 µM
- TGI [49]: > 100 µM
- TGI [12]: 43.1 µM
- TGI [50]: 34.7 µM
- TGI [13]: 60.2 µM
- TGI [14]: 37.8 µM
- TGI [15]: 47.2 µM
- TGI [16]: 46.5 µM
- TGI [17]: 68.2 µM
- TGI [18]: 40.6 µM
- TGI [20]: 48.1 µM
- TGI [51]: 94.2 µM
- TGI [21]: 48 µM
- TGI [22]: 34.2 µM
- TGI [52]: 56 µM
- TGI [23]: > 100 µM
- TGI [24]: 33.6 µM
- TGI [25]: 46.7 µM
- TGI [53]: > 100 µM
- TGI [26]: 50.3 µM
- TGI [27]: 96.7 µM
- TGI [28]: > 100 µM
- TGI [29]: > 100 µM
- TGI [30]: 50.9 µM
- TGI [31]: 42.6 µM
- TGI [33]: 32.5 µM
- TGI [34]: 34.2 µM
- TGI [54]: 39.8 µM
- TGI [35]: 30.3 µM
- TGI [38]: 58.2 µM
- TGI [40]: > 100 µM
- TGI [41]: > 100 µM
- TGI [42]: 27.5 µM
- TGI [43]: 36.3 µM
- TGI [55]: 42.7 µM
- TGI [56]: 59.1 µM
- TGI [45]: 45.9 µM
- TGI [46]: 29.4 µM
